Results reported in the supplement of paper PMC10307832.

Assays:
Assay in all cases: relative viability (nuclei count vs DMSO), 5 days (fraction); higher = more cells survive
RU-SKI 43 + OSI-027 = compound: CC[C@@H](C)CNCC(=O)N1CCC2=C([C@@H]1COC3=CC=CC(=C3)C)C=CS2 [RU-SKI 43] + COc1cccc2cc(-c3nc([C@H]4CC[C@H](C(=O)O)CC4)n4ncnc(N)c34)[nH]c12 [OSI-027] (partner 0.5 µM)
Method in brief: (§1)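 Medians of duplicate plates are given as relative viability. That measure is the nuclei count in treated wells divided by the count in vehicle wells. Counts were taken on 4× images of lung cancer cell lines in 1536-well plates, 5 days after pin-tool dosing the day after seeding with one drug alone or a fixed anchor-drug dose plus five library-drug doses (not always all listed) in √10 steps.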

RU-SKI 43 + Decitabine = compound: CC[C@@H](C)CNCC(=O)N1CCC2=C([C@@H]1COC3=CC=CC(=C3)C)C=CS2 [RU-SKI 43] + Nc1ncn([C@H]2C[C@H](O)[C@@H](CO)O2)c(=O)n1 [Decitabine] (partner 2 µM)
Method in brief: as §1

Irinotecan + Navitoclax = compound: CCc1c2c(nc3ccc(OC(=O)N4CCC(N5CCCCC5)CC4)cc13)-c1cc3c(c(=O)n1C2)COC(=O)[C@]3(O)CC [Irinotecan] + CC1(C)CCC(c2ccc(Cl)cc2)=C(CN2CCN(c3ccc(C(=O)NS(=O)(=O)c4ccc(N[C@H](CCN5CCOCC5)CSc5ccccc5)c(S(=O)(=O)C(F)(F)F)c4)cc3)CC2)C1 [Navitoclax] (partner 0.5 µM)
Method in brief: as §1

Irinotecan + AZD7762 = compound: CCc1c2c(nc3ccc(OC(=O)N4CCC(N5CCCCC5)CC4)cc13)-c1cc3c(c(=O)n1C2)COC(=O)[C@]3(O)CC [Irinotecan] + NC(=O)Nc1cc(-c2cccc(F)c2)sc1C(=O)N[C@H]1CCCNC1 [AZD7762] (partner 0.2 µM)
Method in brief: as §1

| Cell Line | relative viability (RU-SKI 43 + OSI-027; first compound 0.1 µM) | relative viability (RU-SKI 43 + OSI-027; first compound 0.3162 µM) | relative viability (RU-SKI 43 + OSI-027; first compound 1 µM) | relative viability (RU-SKI 43 + OSI-027; first compound 3.162 µM) | relative viability (RU-SKI 43 + OSI-027; first compound 10 µM) | relative viability (RU-SKI 43 + Decitabine; first compound 0.1 µM) | relative viability (RU-SKI 43 + Decitabine; first compound 0.3162 µM) | relative viability (RU-SKI 43 + Decitabine; first compound 1 µM) | relative viability (RU-SKI 43 + Decitabine; first compound 3.162 µM) | relative viability (RU-SKI 43 + Decitabine; first compound 10 µM) | relative viability (Irinotecan + Navitoclax; first compound 0.6325 µM) | relative viability (Irinotecan + Navitoclax; first compound 2 µM) | relative viability (Irinotecan + Navitoclax; first compound 6.325 µM) | relative viability (Irinotecan + Navitoclax; first compound 20 µM) | relative viability (Irinotecan + AZD7762; first compound 0.6325 µM) | relative viability (Irinotecan + AZD7762; first compound 2 µM) | relative viability (Irinotecan + AZD7762; first compound 6.325 µM) | relative viability (Irinotecan + AZD7762; first compound 20 µM) |
| --- | --- | --- | --- | --- | --- | --- | --- | --- | --- | --- | --- | --- | --- | --- | --- | --- | --- | --- |
| NCI-H441 | 0.677 | 0.511 | 0.665 | 0.6 | 0.481 | 0.212 | 0.238 | 0.228 | 0.229 | 0.223 | 0.206 | 0.383 | 0.304 | 0.463 | 0.964 | 0.411 | 0.277 | 0.288 |
| ChaGo-K-1 | 0.658 | 0.632 | 0.646 | 0.579 | 0.744 | 0.543 | 0.559 | 0.518 | 0.551 | 0.501 | – | 0.784 | 0.407 | 0.33 | 0.584 | 0.542 | 0.27 | 0.204 |
| HOP-62 | 0.912 | 1.02 | 1.1 | 0.915 | 0.928 | 0.231 | 0.179 | 0.248 | 0.202 | 0.209 | 0.624 | 0.598 | 0.176 | 0.177 | 0.211 | 0.316 | 0.236 | 0.161 |
| NCI-H1651 | 0.838 | 0.768 | 0.878 | 0.764 | 0.846 | 0.624 | 0.593 | 0.7 | 0.593 | 0.589 | 0.763 | 0.544 | 0.199 | 0.168 | 0.234 | 0.368 | 0.172 | 0.15 |
| NCI-H2126 | 0.681 | 0.627 | 0.777 | 0.678 | 0.715 | 0.591 | 0.574 | 0.523 | 0.615 | 0.554 | – | 0.421 | 0.319 | 0.308 | 0.618 | 0.889 | 0.65 | 0.302 |
| LK-2 | 0.182 | 0.169 | 0.227 | 0.177 | 0.183 | 0.317 | 0.279 | 0.408 | 0.298 | 0.246 | 0.858 | 0.754 | 0.406 | 0.255 | 0.316 | 0.388 | 0.222 | 0.281 |
| NCI-H2347 | 0.414 | 0.414 | 0.697 | 0.389 | 0.328 | 0.604 | 0.542 | 0.651 | 0.617 | 0.636 | 0.648 | 0.477 | 0.348 | 0.277 | 0.609 | 0.654 | 0.48 | 0.372 |
| PC-14 | 0.844 | 1.07 | 0.93 | 0.965 | 0.75 | 0.248 | 0.219 | 0.225 | 0.218 | 0.203 | 0.987 | 0.876 | 0.196 | 0.147 | 0.306 | 0.431 | 0.232 | 0.199 |
| NCI-H1793 | 0.257 | 0.21 | 0.348 | 0.28 | 0.257 | 0.461 | 0.421 | 0.458 | 0.486 | 0.443 | – | 0.447 | 0.347 | 0.664 | – | 0.387 | 0.232 | 0.217 |
| NCI-H2170 | 0.709 | 0.745 | 0.761 | 0.809 | 0.667 | 0.439 | 0.514 | 0.438 | 0.426 | 0.49 | 0.52 | 0.348 | 0.308 | 0.192 | 0.649 | 0.562 | 0.173 | 0.133 |
| LOU-NH91 | 0.752 | 0.642 | 0.74 | 0.774 | 0.728 | 0.786 | 0.828 | 0.809 | 0.805 | 0.824 | 0.578 | 0.526 | 0.32 | 0.275 | 0.719 | 0.756 | 0.421 | 0.156 |
| NCI-H596 | 0.823 | 0.729 | 0.871 | 0.764 | 0.607 | 1.08 | 1.04 | 0.91 | 1.16 | 1.07 | 0.932 | 0.752 | 0.412 | 0.443 | 1.07 | 1.15 | 0.88 | 0.913 |
| LXF-289 | 0.776 | 0.874 | 0.951 | 0.827 | 0.733 | 0.373 | 0.357 | 0.384 | 0.41 | 0.388 | 0.891 | 0.439 | 0.153 | 0.175 | 1.01 | 1.05 | 0.425 | 0.192 |
| NCI-H727 | 0.553 | 0.642 | 0.559 | 0.565 | 0.455 | – | 0.805 | 0.882 | 0.834 | 0.972 | 0.225 | 0.358 | 0.319 | 0.308 | 0.462 | 0.575 | 0.406 | 0.342 |
| NCI-H1395 | 0.717 | 0.684 | 0.747 | 0.558 | 0.6 | 0.661 | 0.858 | 0.776 | 0.714 | 0.696 | – | 0.677 | 0.521 | 0.344 | – | 0.441 | 0.424 | 0.233 |
| NCI-H1993 | 0.53 | 0.527 | 0.596 | 0.59 | 0.575 | 0.547 | 0.578 | 0.517 | 1.1 | 0.643 | 0.97 | 0.834 | 0.588 | 0.812 | – | 0.681 | 0.508 | 0.603 |
| HCC-366 | 0.962 | 0.94 | 1.02 | 0.931 | 0.452 | 0.3 | 0.399 | 0.328 | 0.354 | 0.352 | 0.79 | 0.158 | 0.0415 | 0.0387 | 0.182 | 0.138 | 0.0668 | 0.0622 |
| NCI-H322M | 0.548 | 0.511 | 0.581 | 0.576 | 0.575 | 0.631 | 0.673 | 0.717 | 0.689 | 0.65 | 0.733 | 0.453 | 0.348 | 0.338 | 0.537 | 0.553 | 0.448 | 0.28 |
